Source: patent US7884124B2, “Fluoro-substituted inhibitors of D-amino acid oxidase” (Sepracor Inc., priority 2006, dated 2011)

Legend:
Chung model rats = assay: Chung model (L5 spinal nerve ligation), paw withdrawal threshold with von Frey hairs; type: in vivo, rat
Protocol: Adult male Sprague-Dawley rats, weighing 200-230 g at the time of surgery, were used. They were housed in groups of 4 in an air-conditioned room on a 12 h light/dark cycle. Food and water were available ad libitum. The animals were allowed to acclimatize to the experimental environment for three days by leaving them on a lifted metal mesh for at least 40 min. The baseline paw withdrawal threshold (PWT) was examined using a series of graduated von Frey hairs for 3 consecutive days before surgery and re-assessed on the 7th day after surgery and on the 11th to 14th day before drug dosing. The rat Chung model was prepared as described by Kim and Chung (1992). The rat was anaesthetized with 5% isoflurane mixed with oxygen (2 L per min) followed by an i.p. injection of sodium pentobarbitone at 50 mg/kg. The back was shaved and sterilized with 75% ethanol. The animal was placed in a prone position and a para-medial incision was made on the skin covering L4-6 level. The L5 spinal nerve was carefully isolated and tightly ligated with 6/0 silk suture. The wound was then closed in layers after a complete hemostasis. A single dose of antibiotics (Amoxipen 15 mg/rat, ip) was routinely given for prevention of infection after surgery. The animals were placed in a temperature controlled recovery chamber until fully awake before being returned to the home cage. The animals were placed in individual Perspex boxes on a raised metal mesh for at least 40 min before the test. Starting with the filament of lowest force, each filament was applied perpendicularly to the centre of the ventral surface of the paw until slightly bent for 6 seconds. If the animal withdrew or lifted the paw upon stimulation, then a hair with force immediately lower than that tested was used. If no response was observed, then a hair with force immediately higher was tested. The lowest amount of force required to induce reliable responses (positive in 3 out of 5 trials) was recorded as the value of PWT. Only those animals with significant allodynia (PWT≦3.5 g) were selected for drug dosing experiments. The rats in a neuropathic pain state were randomly divided into experimental groups: Vehicle group and 1 group had 8 rats and the gabapentin group had 9 rats. The drug test was carried out 12 to 14 days after surgery. Isotonic 50 mM phosphate buffer (PB), dosed orally at 3 mL/kg, served as the vehicle control. Gabapentin was dissolved in normal saline and given orally at 100 mg/kg. […] The PWT was assessed at 1, 3, 6 and 24 h following drug or vehicle administration. The animals were returned to their home cage for a break (about 30 min) between two neighboring testing time points. One-way analysis of variance (ANOVA) (SPSS software) was used for statistical analysis to compare different groups on the same time points. Paired Student-t test was used to compare different time points in the same group. The significance level was set at P<0.05.

C57BL/6 male mice = assay: Contextual fear conditioning (freezing 24 hours after training); type: in vivo
Excerpt: Young-adult C57BL/6 male mice were used. Mice were received at 6-7 weeks of age. Upon arrival, mice were assigned unique identification numbers (tail marked) and were group housed in polycarbonate cages with filter tops. All mice were acclimated to the colony room for at least four weeks prior to testing and were subsequently tested at an average age of 10-12 weeks of age. During the period of acclimation, mice were examined on a regular basis, handled, and weighed to assure adequate health and suitability. Mice were maintained on a 12/12 light/dark cycle with the light on at 6:00 a.m. The experiments were always conducted during the light phase of the cycle. The day before the initiation of the experiment, mice were housed single in individual cages and maintained so till the end of the experiment. Animals were randomly assigned across treatment groups. With the exception of testing times, the mice had ad lib access to food and water. Rolipram (0.1 mg/kg) was dissolved in 1% DMSO i.p. 20 min prior to training at a dose volume of 8 ml/kg. To assess contextual conditioning, we use a standardized contextual fear conditioning task originally developed for evaluation of memory in CREB mutant mice (Bourtchouladze, R. et al.; Cell 1994, 79, 59-68). Specifically, on the training day, the mouse is placed into the conditioning chamber for 2 minutes before the onset of the unconditioned stimulus (US), a 0.75 mA foot shock of 2 seconds duration. The US is repeated two times with a 1 min inter-trial interval between shocks. Training is performed using an automated software package. After the last training trial, a mouse is left in the conditioning chamber for another 30 sec and then placed back in its home cage. Contextual memory is tested 24 hours after training. The mouse is placed into the same training chamber and conditioning is assessed by scoring freezing behavior. Freezing is defined as the complete lack of movement in intervals of 5 seconds (Kim et al., 1993; Phillips & LeDoux, 1992; Bourtchouladze et al., 1994; 1998; Abel et al., 1997; Kogan et al., 1997). […]

## NCC1(CC(=O)O)CCCCC1 [Gabapentin, reference compound]
Chung model rats; gabapentin 100 mg/kg orally, 1 hour after dosing, before dosing 1.48±0.22 g
  PWT, ipsilateral side: 3.77 ± 0.42 g
Chung model rats; gabapentin 100 mg/kg orally, 1 hour after dosing, before dosing 9.67±0.68 g
  PWT, contralateral side: 10.11 ± 0.93 g
Chung model rats; gabapentin 100 mg/kg orally, 3 hours after dosing, before dosing 1.48±0.22 g
  PWT, ipsilateral side: 6.27 ± 0.76 g
Chung model rats; gabapentin 100 mg/kg orally, 3 hours after dosing, before dosing 9.67±0.68 g
  PWT, contralateral side: 10.11 ± 0.93 g
Chung model rats; gabapentin 100 mg/kg orally, 6 hours after dosing, before dosing 1.48±0.22 g
  PWT, ipsilateral side: 2.38 ± 0.29 g
Chung model rats; gabapentin 100 mg/kg orally, 6 hours after dosing, before dosing 9.67±0.68 g
  PWT, contralateral side: 8.29 ± 0.42 g
Chung model rats; gabapentin 100 mg/kg orally, 24 hours after dosing, before dosing 1.48±0.22 g
  PWT, ipsilateral side: 2.69 ± 0.60 g
Chung model rats; gabapentin 100 mg/kg orally, 24 hours after dosing, before dosing 9.67±0.68 g
  PWT, contralateral side: 9.40 ± 0.71 g
Chung model rats; gabapentin orally dosed at 100 mg/kg
  Time after dosing at which the effect on PWT reached a peak: 3 h
Chung model rats; gabapentin orally dosed at 100 mg/kg, positive control
  Effect on PWT: significantly increased the PWT

## O=C(O)c1cc2occc2[nH]1 [Compound 11, 4H-furo[3,2-b]pyrrole-5-carboxylic acid]
Chung model rats; oral dose of 10 mg/kg
  Effect on PWT: significantly elevated the PWT
  Time after dosing at which the effect on PWT reached a peak: 6 h
  Time after dosing at which the increase in PWT was first observed: 1 h
C57BL/6 male mice; 10 mg/kg p.o. 2 hrs prior to training, vehicle 33.3%+/−5.1%, n=10
  Freezing 24 hours after training: 69.7%+/−3.0%

## COc1ccc(C2CNC(=O)C2)cc1OC1CCCC1 (stereo not shown) [Rolipram, reference compound]
C57BL/6 male mice; Rolipram 0.1 mg/kg i.p. 20 min prior to training, vehicle 27.2%+/−3.6%
  Freezing 24 hours after training: 44.4%+/−4.4%

## O=C(O)c1cc2sccc2[nH]1 [Compound 1, 4H-thieno[3,2-b]pyrrole-5-carboxylic acid]
Chung model rats; 30 mg/kg orally, 1 hour after dosing, before dosing 1.25±0.18 g
  PWT, ipsilateral side: 2.50 ± 0.33 g
Chung model rats; 30 mg/kg orally, 1 hour after dosing, pre-drug level 8.80±0.13 g
  PWT, contralateral side: 8.15 ± 0.45 g
Chung model rats; 30 mg/kg orally, 3 hours after dosing, before dosing 1.25±0.18 g
  PWT, ipsilateral side: 4.44 ± 0.27 g
Chung model rats; 30 mg/kg orally, 3 hours after dosing, pre-drug level 8.80±0.13 g
  PWT, contralateral side: 8.90 ± 0.15 g
Chung model rats; 30 mg/kg orally, 6 hours after dosing, before dosing 1.25±0.18 g
  PWT, ipsilateral side: 5.71 ± 0.66 g
Chung model rats; 30 mg/kg orally, 6 hours after dosing, pre-drug level 8.80±0.13 g
  PWT, contralateral side: 9.70 ± 0.77 g
Chung model rats; 30 mg/kg orally, 24 hours after dosing, before dosing 1.25±0.18 g
  PWT, ipsilateral side: 1.90 ± 0.38 g
Chung model rats; 30 mg/kg orally, 24 hours after dosing, pre-drug level 8.80±0.13 g
  PWT, contralateral side: 8.35 ± 0.50 g
Chung model rats; 30 mg/kg orally, ipsilateral side
  Time after dosing at which the effect on PWT reached a peak: 6 h
C57BL/6 male mice; 10 mg/kg P.O.
  Activity in contextual fear conditioning: active
